{
  "source": "patent US9173892B2",
  "about": "“Acadesine derivatives, products and compositions including same, therapeutic uses thereof, and methods for synthesizing same” (Universite Nice Sophia Antipolis, priority 2011, dated 2015)",
  "type_in_all_cases": "cell-based, human",
  "key": {"[1]": {"test_system": "K562 cells", "experiment": "cell viability (XTT) of imatinib-sensitive K562 cells", "details": "K562", "method": "(§1) The K562 leukemic cell line is obtained from the pleural effusion of a patient with CML. This line is a good model for studying this disease. […] The K562 and ImaR cells are cultivated at 37° C. under 5% CO2 in an RPMI 1640 medium containing 5% fetal bovine serum and supplemented with sodium pyruvate and antibiotics (penicillin-streptomycin).\n(§2) FIGS. 1 to 4 reflect the study of the cell viability.\n(§3) After the addition of XTT reagent, the absorbance is measured at 490 nm.\nas §3, §3\nAfter adding XTT reagent, the absorbance is measured at 490 nm."}, "[2]": {"test_system": "ImaR cells", "experiment": "cell viability (XTT) of imatinib-resistant ImaR cells", "method": "as §1, §2, §3, §3"}, "[3]": {"test_system": "caspase-3", "experiment": "caspase-3 activity (Ac-DEVD-AMC) in K562 cells", "details": "24 hours, imatinib 3 μM, AICAR 1 mM, 112 at 2.5 μM, 15, 23, 49 at 10 μM", "method": "(§4) The cells are lyzed and 10 μg of proteins are placed in the presence of Ac-DEVD-AMC in a 96-well plate. The fluorescence emission at 460 nm resulting from the release of AMC is then recorded."}, "[4]": {"test_system": "caspase-3", "experiment": "caspase-3 activity (Ac-DEVD-AMC) in ImaR cells", "details": "24 hours, imatinib 3 μM, AICAR 1 mM, 112 at 2.5 μM, 15, 23, 49 at 10 μM", "method": "as §4"}, "[5]": {"test_system": "K562 cells", "experiment": "western blot of apoptosis and autophagy markers, K562 cells", "details": "K562, 24 hours, AICAR 1 mM", "method": "(§5) The cells are lyzed and 35 μg of proteins are separated by SDS-PAGE (12 or 14% polyacrylamide gel) and analyzed by western blot with antibodies specific to each of the markers."}, "[6]": {"test_system": "ImaR cells", "experiment": "western blot of apoptosis and autophagy markers, ImaR cells", "details": "24 hours", "method": "as §5"}, "[7]": {"test_system": "mTOR pathway", "experiment": "western blot of 4E-BP1 phosphorylation (mTOR pathway), K562 cells", "details": "24 hours, imatinib 3 μM, AICAR 1 mM, 82, 112 at 2.5 μM, 15, 23, 191 at 10 μM", "method": "(§6) The cells are lyzed and 30 μg of proteins are separated by SDS-PAGE (13% polyacrylamide gel) and analyzed by western blot with an antibody specific to the 4E-BP1 protein. The delayed gel migration observed reflects the level of phosphorylation of 4E-BP1."}, "[8]": {"test_system": "mTOR pathway", "experiment": "western blot of 4E-BP1 phosphorylation (mTOR pathway), ImaR cells", "details": "24 hours, imatinib 3 μM, AICAR 1 mM, 82, 112 at 2.5 μM, 15, 23, 191 at 10 μM", "method": "as §6"}, "[9]": {"test_system": "cathepsin-B", "experiment": "cathepsin-B activity (z-RR-AMC) in K562 cells", "details": "24 hours, AICAR 1 mM, 82, 112 at 2.5 μM, 15, 23, 191 at 10 μM", "method": "(§7) The cells are lyzed and 5 μg of proteins are placed in the presence of z-RR-AMC in a 96-well plate. The fluorescence emission at 460 nm resulting from the release of AMC is then recorded."}, "[10]": {"test_system": "cathepsin-B", "experiment": "cathepsin-B activity (z-RR-AMC) in ImaR cells", "details": "24 hours, AICAR 1 mM, 82, 112 at 2.5 μM, 15, 23, 191 at 10 μM", "method": "as §7"}, "[11]": {"details": "0.5 mM, 24 or 48 hours, Example 1"}, "[12]": {"details": "5, 10, 25 and 50 μM, compounds effective at concentrations as low as 5 μM"}, "[13]": {"details": "AICAR 1 mM, compounds 2.5 or 10 μM"}},
  "data": [
    {"smiles": "NC(=O)c1ncn([C@@H]2O[C@H](CO)[C@@H](O)[C@H]2O)c1N", "note": "[AICAR, 5-aminoimidazole-4-carboxamide-1-β-D-ribofuranoside, reference compound]", "values": [
      {"measurement": "reduction in cell viability", "setting": "[1]; [11]", "result": "cell viability loss"},
      {"measurement": "efficacy in dose-response experiment (number of viable cells)", "setting": "[1]; [12]", "result": "ineffective"},
      {"measurement": "reduction in cell viability", "setting": "[2]; [11]", "result": "cell viability loss"},
      {"measurement": "efficacy in dose-response experiment (number of viable cells)", "setting": "[2]; [12]", "result": "ineffective"},
      {"measurement": "increase in the caspase-3 activity (factor with respect to the control)", "setting": "[3]", "result": "incapable of inducing this activation"},
      {"measurement": "increase in the caspase-3 activity (factor with respect to the control)", "setting": "[4]", "result": "incapable of inducing this activation"},
      {"measurement": "expression of p62/SQSTM1", "setting": "[5]; 82, 86, 112 at 2.5 μM, 15, 23, 191 at 10 μM", "result": "increase in the expression"},
      {"measurement": "LC3 cleavage (LC3-I into LC3-II)", "setting": "[5]; 82, 86 at 2.5 μM, 15, 23, 191, 49 at 10 μM", "result": "cleaved"},
      {"measurement": "AMPK activation (level of phosphorylation)", "setting": "[5]; compounds 2.5 or 10 μM", "result": "activated"},
      {"measurement": "mTOR pathway: phosphorylation of the ribosomal protein S6", "setting": "[5]; compounds 2.5 or 10 μM", "result": "massive dephosphorylation"},
      {"measurement": "expression of p62/SQSTM1", "setting": "[6]; AICAR 1 mM, 82, 86, 112 at 2.5 μM, 15, 23, 191 at 10 μM", "result": "increase in the expression"},
      {"measurement": "LC3 cleavage (LC3-I into LC3-II)", "setting": "[6]; AICAR 1 mM, 82, 86 at 2.5 μM, 15, 23, 191, 49 at 10 μM", "result": "cleaved"},
      {"measurement": "AMPK activation (level of phosphorylation)", "setting": "[6]; [13]", "result": "activated"},
      {"measurement": "mTOR pathway: phosphorylation of the ribosomal protein S6", "setting": "[6]; [13]", "result": "massive dephosphorylation"},
      {"measurement": "phosphorylation of 4E-BP1", "setting": "[7]", "result": "total reduction"},
      {"measurement": "phosphorylation of 4E-BP1", "setting": "[8]", "result": "total reduction"},
      {"measurement": "increase in the cathepsin-B activity (factor)", "setting": "[9]", "result": "increase"},
      {"measurement": "increase in the cathepsin-B activity (factor)", "setting": "[10]", "result": "increase"}
    ]}
  ]
}
